The record followed here is US9018199B2, “Transition metal complexes for inhibiting resistance in the treatment of cancer and metastasis” (Ecole Polytechnique Federale de Lausanne (EPFL), priority 2006, dated 2015).

In assay [1] the test system is TLX5 lymphona cells. Briefly: Survival time in an in vivo TLX5 lymphoma model. To be noted: for % increase vs Controls (mean survival time) / Mean survival time (days ± SD): TLX5 cells i.p. day 0 in CBA mice, treatment i.p. at day 3, Compound 3 at 200 mg/kg, Cisplatin 8 mg/kg; for Activity in vivo (in words): TLX5 lymphoma in mice, i.p., compound 3 given as suspension in carboxymethylcellulose. On the set-up: species or system CBA brown-grey inbred mice. As for the experimental part: Tumour cells (TLX5, see above in Example 8) were derived from mouse tumours and stabilised for in vivo propagation. For the animal study, TLX5 lymphona cells were injected in the peritoneal cavity of CBA brown-grey inbred mice (Harlan-Nossan, San Giovanni al Natisone, Udine, Italy) at day 0. Test compounds were applied at day 3 at various doses, also by the intraperitoneal route, with each drug (test compound or reference drug) diluted in appropriate physiological solution and injected in a volume of 0.1 ml/10 g body weight.

For assay [2], the system named is MIA-PaCa-2 Human pancreatic cancer. The assay is described as follows: IC50 on tumor cell lines, MTT test, MIA PaCa-2. The format is cell-based. Particulars: MIA PaCa-2, 3 days treatment, two separate experiments.
Experimental: (§2) IC50 values are determined as follows: Tumour cells are incubated in the appropriate complete medium at 37° C. and under controlled atmosphere (5% CO2). Test compounds are tested at doses in the range of 100 nM and 100 μM. Cytotoxicity is determined by the MTT test, by measuring cell viability as the cell metabolic capacity to transform the tetrazolium salt of MTT in the blue formazan, by mitochondrial dehydrogenases; the blue colour is read at 570 nm with a spectrophotometer (Alley M C, Scudiero D A, Monks A, Hursey A L, Czerwinski M J, Fine D L, Abbott B J, Mayo J G, Shoemaker R H, Boyd M R. Feasibility of drug screening with panels of human tumor cell lines using a microculture tetrazolium assay. Cancer Res 48: 598-601, 1988. Mosmann T. Rapid colorimetric assay for cellular growth and survival: application to proliferation and cytotoxicity assays. […] Briefly, on day 0, in 96-well plates, 2-4000 cells/well/100 μl complete medium are plated. On day 1, test compounds are added at the test concentrations of 10^−7 M; 3*10^−7 M; 10^−6 M; 3*10^−6 M; 10^−5 M; 3*10^−5M; 10^−4 M. Each concentration is studied in triplicate. Cell viability, as determined by the MTT test is done on Day 4, after 3 days treatment. Each well is added with 10 μl/100 μl MTT (prepared previously by dissolving 5 mg/ml MTT in PBS, sterilized with filters at a cut-off of 0.22 mm and stored at 4° C.). Plates are put in an incubator at 37° C. for 4 hrs, then medium is eliminated and each well is added with 200 μl DMSO (Sigma Chemical Co., USA). Plates are read with a spectrophotometer (Spectra count Packard Bell, Meriden, Conn., USA) at 570 nm wave length. IC50 is calculated with the GraphPad Prism4.
Assay [3] concerns H460M Human lung carcinoma/metastatic. The assay is described as follows: IC50 on tumor cell lines, MTT test, H460M. In kind it is cell-based. Particulars: 3 days treatment, two separate experiments. In general terms: Formazan colour is commonly taken as a measure of viable cells.
Experimental: as §2
Assay [4] concerns TLX5 Mouse lymphona. The assay is described as follows: IC50 on tumor cell lines, MTT test, TLX5. In kind it is cell-based. To be noted: TLX5, 3 days treatment, two separate experiments.
Experimental: as §2
Assay [5] has as its system HT-29 Human colorectal carcinoma. The assay is described as follows: IC50 on tumor cell lines, MTT test, HT-29. The format is cell-based. To be noted: HT-29, 3 days treatment, two separate experiments.
Experimental: as §2
Assay [6] has as its system A2780 Human ovarian carcinoma. The assay is described as follows: IC50 on tumor cell lines, MTT test, A2780. The format is cell-based. To be noted: A2780, 3 days treatment, two separate experiments.
Experimental: as §2
Assay [7] has as its system A2780/CDDP Human ovarian carcinoma resistant to Cistplatin. Briefly: IC50 on tumor cell lines, MTT test, A2780/CDDP. The format is cell-based. To be noted: for IC50: read-out: IC50 values A2780/CDDP. As to the method: Tumor cell lines derived from human and mouse turnours listed below were stabilised for in vitro propagation.
IC50 values are determined as follows: Tumour cells are incubated in the appropriate complete medium at 37° C. and under controlled atmosphere (5% CO2). Test compounds are tested at doses in the range of 100 nM and 100 μM. Cytotoxicity is determined by the MTT test, by measuring cell viability as the cell metabolic capacity to transform the tetrazolium salt of MTT in the blue formazan, by mitochondrial dehydrogenases; the blue colour is read at 570 nm with a spectrophotometer (Alley M C, Scudiero D A, Monks A, Hursey A L, Czerwinski M J, Fine D L, Abbott B J, Mayo J G, Shoemaker R H, Boyd M R. Feasibility of drug screening with panels of human tumor cell lines using a microculture tetrazolium assay. Cancer Res 48: 598-601, 1988. Mosmann T. Rapid colorimetric assay for cellular growth and survival: application to proliferation and cytotoxicity assays. J Immunol Methods 65: 55-63, 1983). Briefly, on day 0, in 96-well plates, 2-4000 cells/well/100 μl complete medium are plated. On day 1, test compounds are added at the test concentrations of 10^−7 M; 3*10^−7 M; 10^−6 M; 3*10^−6 M; 10^−5 M; 3*10^−5M; 10^−4 M. Each concentration is studied in triplicate. Cell viability, as determined by the MTT test is done on Day 4, after 3 days treatment. Each well is added with 10 μl/100 μl MTT (prepared previously by dissolving 5 mg/ml MTT in PBS, sterilized with filters at a cut-off of […] and stored at 4° C.). Plates are put in an incubator at 37° C. for 4 hrs, then medium is eliminated and each well is added with 200 μl DMSO (Sigma Chemical Co., USA). Plates are read with a spectrophotometer (Spectra count Packard Bell, Meriden, Conn., USA) at 570 nm wave length. IC50 is calculated with the GraphPad Prism4.
The reported values are the most representative of two separate experiments.

The test system of assay [8] is HT-29 colon carcinoma cell line. Briefly: Cell growth proliferation inhibition, MTT assay, HT29. To be noted: 72 hours exposure. The format is cell-based, human. As to the method: (§1) When the cell are confluent, they are trypsinised and seeded in 48-well plates as monolayers for 24 h. […] The media is removed from the cell plates are the drug solutions applied in triplicate. A set of control cells, with media containing 1.0% DMSO, was left on each plate. The cells were exposed to the drugs for 72 hours. For […], (8) and (9), the Ru compounds are weighed, and dissolved directly in medium to 1600 μM, then serially diluted to make up 800 μ[…] solutions. Cell viability was determined using the standard MTT assay protocol, which allows the quantification of the mitochondrial activity in metabolically active cells. MTT (final concentration 0.2 mg/ml) was added to the cells for 2 h, then the culture medium was aspirated and the violet formazan precipitate dissolved in 0.1 N HCl in 2-propanol. The optical density, which is directly proportional to number of surviving cells, was quantified at 540 nm using a multiwell plate reader and the fraction of surviving cells was calculated from the absorbance of untreated control cells. Using the above protocol, the compounds were tested against human T47D and MCF-7 breast carcinoma, A549 lung carcinoma and HT-29 colon carcinoma cell lines (see FIG. 7).

For assay [9], the system named is T47D breast carcinoma cell line. Briefly: Cell growth proliferation inhibition, MTT assay, T47D. The format is cell-based, human. Particulars: T47D cells, 72 hours exposure. As for the experimental part: as §1
The test system of assay [10] is MCF-7 breast carcinoma cell line. Briefly: Cell growth proliferation inhibition, MTT assay, MCF7. The format is cell-based, human. To be noted: MCF7 cells, 72 hours exposure. As for the experimental part:
as §1

Assay [11] has as its system A549 lung carcinoma cell line. Briefly: Cell growth proliferation inhibition, MTT assay, A549. Particulars: A549 cells, 72 hours exposure. The format is cell-based, human. As to the method: as §1
Assay [12] concerns Glutathione-S-Transferase. Briefly: Inhibition of Glutathione-S-Transferase activity in A549 cell lysates (glutathione-CDNB assay). The format is biochemical, human. Particulars: A549 lung carcinoma cell lysates exposed to 100 μM drug solution for 90 mins. As to the method: Human A549 lung carcinoma cells, known to express high levels of Glutathione-S-Transferase, were routinely grown in flasks with DMEM medium containing 4.5 g/l glucose, 10% foetal calf serum (FCS) and antibiotics at 37° C. and 6% CO2. When the cells are confluent, they are trypsinised and concentrated in a centrifuge at 4° C. The cells were then diluted in phosphate-buffer saline (PBS) containing protease inhibitor cocktail (final concentration of 1 μg/ml) and homogenised by repeatedly freezing in liquid nitrogen and thawing (4 cycles). The homogenised cell samples were centrifuged at 4° C. and the supernatant, which is the cell lysates, was separated. The cell lysates are stored at −56° C.
The Ru compounds are weighed, and dissolved in DMSO to 100 mM. […] The cell lysates were exposed to the drug solutions for 90 mins. Control, containing the cell lysates with water/0.1% DMSO was also prepared.
The GST activity in the treated cell lysates was determined using the glutathione-CDNB (1-chloro-2,4-dinitrobenzene) assay. Glutathione and CDNB were dissolved in deionised water and ethanol respectively to make up a 100 mM solutions. A developing solution, containing 50 mM phosphate buffer solution (pH 6.5), was prepared and was added 1% v/v, the 100 mM glutathione and 100 mM CDNB solutions such that their final concentrations are both 1 mM. The developing solution was added to a 96-well plate at 200 μl per well, followed by the treated cell lysates at 2 μl per well. The absorbance at 340 nm was monitored continuously for 5 mins at 15 s intervals. The average slope of the change in absorbance was determined as a fraction of the control as the percentage of residual GST activity.

The mark [13] stands for this setting: A2780/CDDP (Cisplatin-resistant), 3 days treatment, MTT test, two separate experiments.

Values joined by “and” are separate entries in the source; they are usually repeats but may differ in a detail not shown here. Equal values may be shown once. Read-outs that look alike come from different tables or passages of the source. A value given as a limit tells only on which side of the number the result lay.

For the molecule `N.N.[Cl][Pt][Cl]` [Cisplatin], in assay [1], the “% increase vs Controls (mean survival time)” value is recorded as 18%. Further, in assay [1], the “Mean survival time (days ± SD)” value amounted to 11.8 ± 1.79 days. For the same molecule, the “Activity in vivo (in words)” value in assay [1] is “effective”. Moreover, the IC50 in assay [2] is 10.6 to 12.9 µM; in assay [3], 1.3 to 3 µM; in assay [4], 0.02 to 0.2 µM; in assay [5] it was 4.9 to 32.6 µM; in assay [6] it was 10.5 to 11.8 µM; in [7] (setting [13]) it was > 100 µM.
Consider (η^6 cymene)Ru(PTA)(C2O4) [Compound 8], for which the IC50 in [8] (HT29 cells) was 267 µM; in [9], 1170 µM; in [10], > 1600 µM; in assay [11], 1130 µM.
As to “(Ethacrynic-η^6:benzylamide)Ru(PTA)Cl2 [Compound 3]”, the “% increase vs Controls (mean survival time)” value in assay [1] was 22%. For the same molecule, the “Mean survival time (days ± SD)” value in assay [1] is 12.2 days and 12.2 ± 1.79 days. Moreover, in [1], the “Activity in vivo (in words)” value is “active in vivo”. Further, the IC50 in assay [2] is 14.7 to 20.1 µM; in assay [3], 2.5 to 3.8 µM; in assay [4] it was 0.8 to 3 µM; in assay [8] (HT29 cells), 50.7 µM; in [5], 2.3 to 3.8 µM; in [6], 7.1 to 9.5 µM. In addition, the IC50 in assay [9] is 2.91 µM; in assay [10], 19.9 µM; in assay [11], 32.3 µM; in assay [7] (setting [13]) it was 4.6 to 5.3 µM. Further, in assay [7] (A2780/CDDP, MTT test), the “Activity against the Cisplatin-resistant cell line A2780/CDDP (in words)” value is listed as “active”. Also, the “Residual GST activity (% control)” value in assay [12] amounted to 63.57 ± 2.0 % control.
Take “(η^6-cymene)Ru(PTA)(C6H6O4) [Compound 9]”: the IC50 in [8] (HT29 cells) was 265 µM; in [9], 1090 µM; in assay [10] it was > 1600 µM; in assay [11], 1570 µM.
Consider “(η^6-cymene)RuCl2(ethacrynic-propylamide-imidazole) [Compound 6]”, for which the IC50 in [8] (HT29 cells) was 39.1 µM; in assay [9], 4.8 µM; in [10] it was 10.7 µM; in assay [11], 34 µM. Also, the “Residual GST activity (% control)” value in assay [12] worked out at 23.70 ± 10.7 % control.
For the molecule `Cc1ccc(C(C)C)cc1.[Cl][Ru]([Cl])[PH]12CN3CN(CN(C3)C1)C2` [(η^6-cymene)Ru(PTA)Cl2, reference compound], the IC50 was 436 µM in assay [8] (HT29 cells), 1060 µM in assay [9], > 1600 µM in assay [10] and 1030 µM in assay [11].
With RAPTA-T, the IC50 was > 100 µM in assay [2]; > 100 µM in [3]; 64.1 to 92.9 µM in [4]; > 100 µM in assay [5]; > 100 µM in [6]; > 100 µM in [7] (setting [13]).
In the case of `C=C(CC)C(=O)c1ccc(OCC(=O)O)c(Cl)c1Cl` [Ethacrynic acid, reference compound], the IC50 in [2] (Homo sapiens, 72 h) is > 100 µM; in assay [3] (Homo sapiens, 72 h) it was 58.1 to 63.3 µM; in assay [4] (Mus musculus, TLX-5, 72 h), 1.3 to 1.8 µM; in [8] (Homo sapiens, HT-29, HT29 cells) it was 73.5 µM; in [5] (Homo sapiens, 72 h), 35.2 to 44 µM; in [6] (Homo sapiens, 72 h) it was 91.1 to 94.8 µM. For the same molecule, the IC50 is 7.73 µM in assay [9] (Homo sapiens); 66 µM in [10] (Homo sapiens); 50.7 µM in assay [11] (Homo sapiens); 84.3 to 97.6 µM in assay [7] (Homo sapiens, A2780/CDDP, 72 h).
In the case of `C1N2CN3CN1CP(C2)C3.C=C(CC)C(=O)c1ccc(OCC(=O)OCCc2ccccc2)c(Cl)c1Cl.[Cl][Ru][Cl]` [Compound 4, (Ethacrynic-η^6:phenylethanoate)Ru(PTA)Cl2], the IC50 in assay [2] is 81.5 to 92.7 µM; in [3], 29.1 to 31.5 µM; in assay [4] it was 3.6 to 4.3 µM; in [8] (HT29 cells) it was 106 µM; in assay [5], 30 to 32.6 µM; in assay [6] it was ~30 µM. Further, the IC50 in [9] is 6.28 µM; in [10], 105 µM; in assay [11] it was 66.7 µM; in assay [7] (setting [13]) it was 36.7 to 38.7 µM. Besides, in [7] (A2780/CDDP, MTT test), the “Activity against the Cisplatin-resistant cell line A2780/CDDP (in words)” value is given as “active”. Moreover, the “Residual GST activity (% control)” value in [12] worked out at 42.77 ± 13.9 % control.
Regarding “[(η^6-cymene)RuCl(PTA)(imidazolium-ethacrynic aide)]BF4^− [Compound 7]”, the IC50 in [8] (HT29 cells) was found to be 64.2 µM; in [9], 5.97 µM; in [10] it was 19.9 µM; in [11], 65.1 µM. In assay [12], the “Residual GST activity (% control)” value is 62.58 ± 8.8 % control.
